US20260022098A1, “BULLEYACONITINE A DERIVATIVE WITH ANALGESIC ACTIVITY, AND PREPARATION METHOD AND APPLICATION THEREOF” (priority 2023, published 2026)

How the values were obtained:
Kunming mice [1] = assay: Analgesic activity by acetic acid-induced writhing method (writhing inhibition rate, ED50); format: in vivo; details: Mus musculus, sc, read-out: Analgesia rate (%) ± SEM
Experimental: (§1) The experimental animals were Kunming mice (male:female=1:1), weighed 22+2 g, which were provided by Chengdu dossy experimental animals Co., ltd., China. The mice were kept in the animal room of the School of Life Science and Engineering, Southwest Jiaotong University, where the animal room was set at a temperature of 23±2° C., a humidity of […] and a photoperiod of 16:8 h (L:D). Before the experiment, the mice were freely fed for 2-3 days with water and feed to adapt to the new environment. Then, the mice were treated by water and food fasting for 12 h. 10 animals were allocated to each group to ensure that there are at least 6 sets of valid data in each group. The animal experiments were carried out in strict accordance with the national regulations on the management of experimental animals.
(§2) The compounds prepared in the examples provided herein (test sample set) and bulleyaconitine A (positive control set) were all dissolved with 0.1 mol/L HCl according to a molar ratio of 1:1, and then diluted with physiological saline to a concentration to be determined. Blank control was physiological saline containing 0.1 mol/L HCl. The animals in the control groups were subjected to the same treatment as those in experimental groups except that samples to be test were replaced with physiological saline.
(1) Determination of Analgesic Activity Through an Acetic Acid-Induced Writhing Method
10 mice were randomly selected, male:female=1:1, were placed in independent cages. Each mouse was injected subcutaneously with the sample solution mentioned above at a dose of 0.1 mL/10 g body weight. After 15 min, a 0.7% acetic acid solution was intraperitoneally injected. A number of writhing reactions in each mouse within 15 minutes was recorded. The group that the mice were injected with physiological saline subcutaneously was the blank group; the group that the mice were injected with the sample to be tested was the experimental group; and the group that the mice were injected with bulleyaconitine A was the positive group. The analgesic activity was represented by a percentage of the reduced number of writhing compared to the blank group (writhing inhibition rate), which were specifically as follows: writhing inhibition rate (analgesic activity)=(average number of writhing times in the blank group-average number of writhing times in the experimental group)/average number of writhing times in the blank group×100%.
Median Effective Dose (ED50) Determination
The sample to be tested was dissolved with 0.1 mol/L HCl according to the amount of the substance ratio of 1:1, and diluted with physiological saline according to the proportional series to obtain at least 5 groups with different dose concentrations. The writhing inhibition rate of each dose group was tested according to the acetic acid-induced writhing method mentioned above. The obtained dose-writhing inhibition data was entered into the statistical product and service solutions (SPSS) software (version 17.2), and the ED50 of the sample to be tested was calculated through the Probit regression method.

Kunming mice [2] = assay: Acute toxicity / median lethal dose (LD50) determination, subcutaneous injection; format: in vivo; parameters: key to Acute toxicity: if death occurred, (+) represented as positive; if no death occurred, (−) represented as negative; details: mice administered 20 mg/kg subcutaneously, presence of death within 24 h
Experimental: as §1, §2
(2) Median Lethal Dose (LD50) Determination
The sample to be tested was dissolved with 0.1 mol/L HCl according to the amount of the substance ratio of 1:1, and diluted with physiological saline according to the required concentration. 10 mice in each group were randomly selected, half of which were male and half of which were female, and were placed in independent cages. Each mouse was injected subcutaneously with different sample solutions to be tested according to a dose of 0.1 mL/10 g body weight. In the preliminary toxicity experiment, the measured concentration was 20 mg/kg, and then based on the survival rate of the experimental animals in the preliminary experiment, the sample to be tested was set to at least 5 groups with different concentration dose according to the proportional series. The survival rate of mice within 24 h was recorded. The obtained dose-survival rate data was input into the SPSS software (version 17.2), and the LD50 of the sample was calculated according to the Probit regression method.

SMILES	inhibition in vivo at 0.05 mg/kg (Kunming mice [1]) [%]	Acute toxicity (Kunming mice [2])
CCN1C[C@]2(COC)CC[C@H](OC)[C@@]34C5C[C@]6(O)[C@@H](OC)C[C@@](OC)(C5[C@H]6OC(=O)c5ccc(OC)cc5)C([C@H](OC)C23)[C@@H]14 (stereo partly shown) [Compound 1]	25.5 ± 2.9	+
CCO[C@]12C[C@H](OC)[C@@]3(O)CC(C1[C@H]3OC(=O)c1ccc(OC)cc1)[C@]13C4[C@@H](OC)C2[C@H]1N(CC)C[C@]4(COC)CC[C@@H]3OC (stereo partly shown) [Compound 2]	41.1 ± 1.8	+
CCN1C[C@@]2(COC)C3[C@@H](OC)C4[C@@H]1[C@@]3(C1C[C@]3(O)[C@@H](OC)C[C@@]4(OC)C1[C@H]3O)[C@@H](OC)C[C@H]2O (stereo partly shown) [Compound 3]	9.78 ± 1.9	−
CCO[C@]12C[C@H](OC)[C@@]3(O)CC(C1[C@H]3O)[C@]13C4[C@@H](OC)C2[C@H]1N(CC)C[C@]4(COC)CC[C@@H]3OC (stereo partly shown) [Compound 4]	5.63 ± 1.1	−
CCO[C@]12C[C@H](OC)[C@@]3(OC(=O)C(C)Cl)CC(C1[C@H]3OC(=O)C(C)Cl)[C@]13C4[C@@H](OC)C2[C@H]1N(CC)C[C@]4(COC)CC[C@@H]3OC (stereo partly shown) [Compound 7]	22.8 ± 3.3	−
CCO[C@]12C[C@H](OC)[C@@]3(OC(=O)C4CC4)CC(C1[C@H]3OC(=O)C1CC1)[C@]13C4[C@@H](OC)C2[C@H]1N(CC)C[C@]4(COC)CC[C@@H]3OC (stereo partly shown) [Compound 8]	37.1 ± 1.2	−
CCN1C[C@]2(COC)CC[C@H](OC)[C@@]34C5C[C@]6(OC(=O)c7ccc(OC)cc7)[C@@H](OC)C[C@@](OC(C)=O)(C5[C@H]6OC(=O)c5ccc(OC)cc5)C([C@H](OC)C23)[C@@H]14 (stereo partly shown) [Compound 9]	33.5 ± 1.9	−
CCN1C[C@]2(COC)CC[C@H](OC)[C@@]34C5C[C@]6(OC(=O)C7CC7)[C@@H](OC)C[C@@](OC(C)=O)(C5[C@H]6OC(=O)c5ccc(OC)cc5)C([C@H](OC)C23)[C@@H]14 (stereo partly shown) [Compound 10]	15.2 ± 1.9	−
CCN1C[C@]2(COC)CC[C@H](OC)[C@@]34C5C[C@]6(OC(=O)C7CCCCC7)[C@@H](OC)C[C@@](OC(C)=O)(C5[C@H]6OC(=O)c5ccc(OC)cc5)C([C@H](OC)C23)[C@@H]14 (stereo partly shown) [Compound 11]	35.1 ± 1.2	−
CCO[C@]12C[C@H](OC)[C@@]3(OC(=O)C4CC4)CC(C1[C@H]3OC(=O)c1ccc(OC)cc1)[C@]13C4[C@@H](OC)C2[C@H]1N(CC)C[C@]4(COC)CC[C@@H]3OC (stereo partly shown) [Compound 16]	36.7 ± 1.2	−
CCO[C@]12C[C@H](OC)[C@@]3(OC(=O)c4ccc(Cl)s4)CC(C1[C@H]3OC(=O)c1ccc(Cl)s1)[C@]13C4[C@@H](OC)C2[C@H]1N(CC)C[C@]4(COC)CC[C@@H]3OC (stereo partly shown) [Compound 18]	13.4 ± 0.6	−
CCO[C@]12C[C@H](OC)[C@@]3(OC(=O)c4cccs4)CC(C1[C@H]3OC(=O)c1ccc(OC)cc1)[C@]13C4[C@@H](OC)C2[C@H]1N(CC)C[C@]4(COC)CC[C@@H]3OC (stereo partly shown) [Compound 19]	7.13 ± 2.8	−
CCO[C@]12C[C@H](OC)[C@@]3(OC(=O)c4ccc(Cl)s4)CC(C1[C@H]3OC(=O)c1ccc(OC)cc1)[C@]13C4[C@@H](OC)C2[C@H]1N(CC)C[C@]4(COC)CC[C@@H]3OC (stereo partly shown) [Compound 20]	0	−
CCN1C[C@]2(COC)CC[C@H](OC)[C@@]34C5C[C@]6(OC(=O)c7cccs7)[C@@H](OC)C[C@@](OC(C)=O)(C5[C@H]6OC(=O)c5ccc(OC)cc5)C([C@H](OC)C23)[C@@H]14 (stereo partly shown) [Compound 21]	0	−
